Test results published in patent US20230339997A1, “CLASS OF PLATINUM COMPOUNDS FOR TREATING CANCER, AND METHOD FOR PREPARATION THEREOF” (SHANGHAI HAIJU BIOLOGICAL TECHNOLOGY CO., LTD., priority 2020, published 2023).
Values after ≈ are worked out from the molar mass of the structure shown. “Also recorded” adds a separate entry of the source.

What was measured:
[1] = test system: S180 sarcoma; assay: In vivo tumor inhibition experiment, transplanted tumor S180 in mice; parameters: species or system Kunming mice; details: for Tumor inhibition rate % / Tumor weight (g) X ± SD: S180 sarcoma mice, dl, 4, killed on eighth day
Protocol: In Vivo Tumor Inhibition Experiment of Example
The inhibitory effects of example S47 and example S70 of the present disclosure on animal transplanted tumor S180 were tested.
Kunming mice, ♀, 22±1 g, were purchased from Shanghai Slac Laboratory Animal Co., Ltd. Certificate number: SCXK (Shanghai) 2013-0010-02. Feeding environment: SPF level. Example S47, example S70 and carboplatin, a positive control drug, were prepared with 5% glucose to the required concentration. Mice were subcutaneously inoculated with S180 sarcoma cells, and the drug administration was started on the next day of inoculation. The mice were killed on the eighth day, and the tumor was weighed and the tumor inhibition rate was calculated.
Tumor inhibition rate=(tumor weight in the control group−tumor weight in the treatment group)/tumor weight in the control group×100

[2] = In vitro water solubility experiment; details: for solubility at 30 min / solubility: 25 °C, water, thermodynamic from solid; for improvement of water solubility compared with carboplatin: compared with the marketed drug carboplatin
Protocol: In Vitro Water Solubility Experiment of Example
At room temperature of 25° C., the test sample that had been ground into a fine powder was weighed accurately, and shaken vigorously for 30 seconds every 5 minutes in a certain volume of distilled water; and the dissolution of each test sample was observed within 30 minutes. If no visible solute particles were visible, the sample was considered to be completely dissolved.

[3] = background, studies have shown; cited from earlier work

CC(=O)N[C@@H](CCCNC(=N)N)C(=O)NCC(=O)N[C@@H](CC(=O)O)C(=O)NCCSC1CC(=O)N(CCCCCC(=O)NN=C2CC3(C2)C(=O)[O][Pt]([NH2])([NH2])[O]C3=O)C1=O (stereo partly drawn) [Example S70]
Tumor inhibition rate % ([1]; dose 80, Ip): 52.3% | Tumor weight (g) X ± SD ([1]; dose 80, Ip): 0.92 ± 0.20 g | Tumor inhibition rate % ([1]; dose 160, Ip): 70.8% | Tumor weight (g) X ± SD ([1]; dose 160, Ip): 0.56 ± 0.17 g | Tumor inhibition rate % ([1]; dose 240, Ip): 84.6% | Tumor weight (g) X ± SD ([1]; dose 240, Ip): 0.30 ± 0.14 g | inhibitory effect on growth of S180 sarcoma of mice (in words) ([1]; compared with carboplatin at equimolar concentrations): more obvious ability to inhibit the growth of transplanted tumor S180 than the clinical drug carboplatin; also recorded: significantly better than carboplatin

N=C(N)NCCC[C@@H]1NC(=O)[C@@H](CCCCNC(=O)CCOCCOCCOCCOCCNC(=O)CC[C@H](NC(=O)CCSC2CC(=O)N(CCCCCC(=O)NN=C3CC4(C3)C(=O)[O][Pt]([NH2])([NH2])[O]C4=O)C2=O)C(=O)NCCOCCOCCOCCOCCC(=O)NCCCC[C@H]2NC(=O)[C@@H](Cc3ccccc3)NC(=O)[C@H](CC(=O)O)NC(=O)CNC(=O)[C@H](CCCNC(=N)N)NC2=O)NC(=O)[C@@H](Cc2ccccc2)NC(=O)[C@H](CC(=O)O)NC(=O)CNC1=O (stereo partly drawn) [Example S72]
solubility at 30 min [2]: > 30 mg/mL | improvement of water solubility compared with carboplatin [2]: ~1 fold

N=C(N)NCCC[C@@H]1NC(=O)[C@@H](CCCCNC(=O)CCOCCOCCOCCOCCNC(=O)CC[C@H](NC(=O)CCSC2CC(=O)N(CCOCCOCCC(=O)NN=C3CC4(C3)C(=O)[O][Pt]([NH2])([NH2])[O]C4=O)C2=O)C(=O)NCCOCCOCCOCCOCCC(=O)NCCCC[C@H]2NC(=O)[C@@H](Cc3ccccc3)NC(=O)[C@H](CC(=O)O)NC(=O)CNC(=O)[C@H](CCCNC(=N)N)NC2=O)NC(=O)[C@@H](Cc2ccccc2)NC(=O)[C@H](CC(=O)O)NC(=O)CNC1=O (stereo partly drawn) [Example S80]
solubility at 30 min [2]: > 30 mg/mL | improvement of water solubility compared with carboplatin [2]: ~1 fold

N=C(N)NCCC[C@@H]1NC(=O)[C@@H](CCCCNC(=O)CCOCCOCCOCCOCCNC(=O)CC[C@H](NC(=O)CCSC2CC(=O)N(CC3CCC(C(=O)NN=C4CC(C(=O)O)(C(=O)O)C4)CC3)C2=O)C(=O)NCCOCCOCCOCCOCCC(=O)NCCCC[C@H]2NC(=O)[C@@H](Cc3ccccc3)NC(=O)[C@H](CC(=O)O)NC(=O)CNC(=O)[C@H](CCCNC(=N)N)NC2=O)NC(=O)[C@@H](Cc2ccccc2)NC(=O)[C@H](CC(=O)O)NC(=O)CNC1=O (stereo partly drawn) [Example S95]
solubility [2]: > 30 mg/mL

N=C(N)NCCC[C@@H]1NC(=O)[C@@H](CCCCNC(=O)CCOCCOCCOCCOCCNC(=O)CC[C@H](NC(=O)CCSCC2=CCC(=O)N2CC2CCC(C(=O)NN=C3CC(C(=O)O)(C(=O)O)C3)CC2)C(=O)NCCOCCOCCOCCOCCC(=O)NCCCC[C@H]2NC(=O)[C@@H](Cc3ccccc3)NC(=O)[C@H](CC(=O)O)NC(=O)CNC(=O)[C@H](CCCNC(=N)N)NC2=O)NC(=O)[C@@H](Cc2ccccc2)NC(=O)[C@H](CC(=O)O)NC(=O)CNC1=O (stereo partly drawn) [Example S97]
solubility [2]: 30 mg/mL (≈ 13.1 mM)

[NH2][Pt]1([NH2])[O]C(=O)C2(CCC2)C(=O)[O]1 [carboplatin, reference compound]
solubility at 30 min [2]: 16.6 mg/mL | water solubility [3]: 17.0 mg/mL
